# Source: ChEMBL document CHEMBL3232940, “TNF-α inhibition elicited by mansoins A and B, heterotrimeric flavonoids isolated from Mansoa hirsuta” (J Nat Prod, 2014)
# Assay: Antiinflammatory activity in human THP1 cells assessed as inhibition of LPS-induced TNF-alpha production preincubated for 3 hrs followed by LPS-challenge measured after overnight incubation by sandwich ELISA
# Format: functional, cell-based
# Details: THP-1
row,SMILES,IC50
1,O=C1C[C@@H](c2ccc(O)c(O[C@@H]3O[C@H](CO)[C@@H](O)[C@H](O)[C@H]3O)c2)Oc2c1c(O)c([C@@H](CCc1ccc(O)cc1)c1ccc(O)cc1O[C@@H]1O[C@H](CO)[C@@H](O)[C@H](O)[C@H]1O)c(O)c2[C@@H](CCc1ccc(O)cc1)c1ccc(O)cc1O[C@@H]1O[C@H](CO)[C@@H](O)[C@H](O)[C@H]1O,48.1 µM
2,O=C1C[C@@H](c2ccc(O)c(O)c2)Oc2c1c(O)c([C@@H](CCc1ccc(O)cc1)c1ccc(O)cc1O[C@@H]1O[C@H](CO)[C@@H](O)[C@H](O)[C@H]1O)c(O)c2[C@@H](CCc1ccc(O)cc1)c1ccc(O)cc1O[C@@H]1O[C@H](CO)[C@@H](O)[C@H](O)[C@H]1O,20 µM
